Like-named read-outs stand apart in the source and are kept apart here.
Experiments:
[1] = system: WT (wild-type HIV virus; recombinant NL4-3 virus); assay: microbe, parasite or virus in culture; format: cell-based, HIV-1
Procedure, shortened: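 MT-2 cells infected 4-5 days with NL4-3 carrying Renilla luciferase in place of part of nef (Gag P373S), virus made by 293T transfection, with serial inhibitor dilutions. Antiviral activity read as luciferase activity by a modified dual-luciferase read-out.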

[2] = system: HIV-1 NL4-3 gag A364V virus; assay: microbe, parasite or virus in culture; format: cell-based
Procedure, shortened: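 Recombinant NL4-3 reporter virus with Renilla luciferase replacing part of nef, made by transfection of 293T cells. MT-2 cells infected for 4-5 days with serial inhibitor dilutions; antiviral activity quantified by luciferase activity.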

[3] = Human immunodeficiency virus 1, NL43, MT2, read-out: WT (EC50, uM), Table 1 regular screen, class symbol
[4] = Human immunodeficiency virus 1, NL43, MT2, read-out: A364V (EC50, uM), Table 1 regular screen, class symbol
[5] = Human immunodeficiency virus 1, NL43, MT2, read-out: WT (EC50, uM), Table 1 regular screen, MT-2 cells, luciferase readout
[6] = Human immunodeficiency virus 1, NL43, MT2, read-out: A364V (EC50, uM), Table 1 regular screen, MT-2 cells, luciferase readout

Structure (SMILES) | EC50 [1, 3] [µM] | EC50 [2, 4] [µM] | also measured
C=C(C)[C@@H]1CC[C@]2(NCCN3CC(C)S(=O)(=O)C(C)C3)CC[C@]3(C)[C@H](CC[C@@H]4[C@@]5(C)CC=C(C6=CC[C@@](CF)(C(=O)O)CC6)C(C)(C)[C@@H]5CC[C@]43C)[C@@H]12 (stereo partly drawn) [Example 24, (1R)-4-((1R,3aS,5aR,5bR,7aR,11aS,11bR,13aR,13bR)-3a-((2-(2,6-dimethyl-1,1-dioxidothiomorpholino)ethyl)amino)-5a,5b,8,8,11a-pentamethyl-1-(prop-1-en-2-yl)-2,3,3a,4,5,5a,5b,6,7,7a,8,11,11a,11b,12,13,13a,13b-octadecahydro-1H-cyclopenta[a]chrysen-9-yl)-1-(fluoromethyl)cyclohex-3-enecarboxylic acid] | < 0.05 | > 0.05 | –
C=C(C)[C@@H]1CC[C@]2(NCC(=O)N3CCS(=O)(=O)C3)CC[C@]3(C)[C@H](CC[C@@H]4[C@@]5(C)CC=C(C6=CC[C@](CF)(C(=O)O)CC6)C(C)(C)[C@@H]5CC[C@]43C)[C@@H]12 [Example 35, (S)-4-((1R,3aS,5aR,5bR,7aR,11aS,11bR,13aR,13bR)-3a-((2-(1,1-dioxidothiazolidin-3-yl)-2-oxoethyl)amino)-5a,5b,8,8,11a-pentamethyl-1-(prop-1-en-2-yl)-2,3,3a,4,5,5a,5b,6,7,7a,8,11,11a,11b,12,13,13a,13b-octadecahydro-1H-cyclopenta[a]chrysen-9-yl)-1-(fluoromethyl)cyclohex-3-enecarboxylic acid] | – | – | EC50 [1, 5]: 0.00157 µM; EC50 [2, 6]: 0.157 µM
C=C(C)[C@@H]1CC[C@]2(NC(CN)C(F)(F)F)CC[C@]3(C)[C@H](CC[C@@H]4[C@@]5(C)CC=C(C6=CC[C@](CF)(C(=O)O)CC6)C(C)(C)[C@@H]5CC[C@]43C)[C@@H]12 (single isomer, unassigned) [Example 40] | – | – | EC50 ([1]; read-out: WT (EC50), Table 1 regular screen, MT-2 cells, luciferase readout): 0.0687 µM; EC50 ([2]; read-out: A364V (EC50), Table 1 regular screen, MT-2 cells, luciferase readout): 3 µM
C=C(C)[C@@H]1CC[C@]2(CNCCCN3CCS(=O)(=O)CC3)CC[C@]3(C)[C@H](CC[C@@H]4[C@@]5(C)CC=C(C6=CC[C@@](CF)(C(=O)O)CC6)C(C)(C)[C@@H]5CC[C@]43C)[C@@H]12 [Example 11, (R)-4-((1R,3aS,5aR,5bR,7aR,11aS,11bR,13aR,13bR)-3a-(((3-(1,1-dioxidothiomorpholino)propyl)amino)methyl)-5a,5b, 8,8,11a-pentamethyl-1-(prop-1-en-2-yl)-2,3,3a,4,5,5a,5b,6,7,7a,8,11,11a,11b,12,13,13a,13b-octadecahydro-1H-cyclopenta[a]chrysen-9-yl)-1-(fluoromethyl)cyclohex-3-enecarboxylic acid] | < 0.05 | < 0.05 | –
C=C(C)[C@@H]1CC[C@]2(NCCN3CCC(C(=O)OCC)(C(=O)OCC)CC3)CC[C@]3(C)[C@H](CC[C@@H]4[C@@]5(C)CC=C(C6=CC[C@@](CF)(C(=O)O)CC6)C(C)(C)[C@@H]5CC[C@]43C)[C@@H]12 [Example 13, (R)-4-((1R,3aS,5aR,5bR,7aR,11aS,11bR,13aR,13bR)-3a-((2-(4,4-bis(ethoxycarbonyl)piperidin-1-yl)ethyl)amino)-5a,5b, 8,8,11a-pentamethyl-1-(prop-1-en-2-yl)-2,3,3a,4,5,5a,5b,6,7,7a,8,11,11a,11b,12,13,13a,13b-octadecahydro-1H-cyclopenta[a]chrysen-9-yl)-1-(fluoromethyl)cyclohex-3-enecarboxylic acid] | – | – | EC50 [1, 5]: 0.0188 µM; EC50 [2, 6]: 0.196 µM
C=C(C)[C@@H]1CC[C@]2(NCC(=O)N3CCOCC3)CC[C@]3(C)[C@H](CC[C@@H]4[C@@]5(C)CC=C(C6=CC[C@](CF)(C(=O)O)CC6)C(C)(C)[C@@H]5CC[C@]43C)[C@@H]12 [Example 32, (S)-1-(fluoromethyl)-4-((1R,3aS,5aR,5bR,7aR,11aS,11bR,13aR,13bR)-5a,5b, 8,8,11a-pentamethyl-3a-((2-morpholino-2-oxoethyl)amino)-1-(prop-1-en-2-yl)-2,3,3a,4,5,5a,5b,6,7,7a,8,11,11a,11b,12,13,13a,13b-octadecahydro-1H-cyclopenta[a]chrysen-9-yl)cyclohex-3-enecarboxylic acid] | < 0.05 | > 0.05 | –
C=C(C)[C@@H]1CC[C@]2(NCCC3CCS(=O)(=O)CC3)CC[C@]3(C)[C@H](CC[C@@H]4[C@@]5(C)CC=C(C6=CC[C@](CF)(C(=O)O)CC6)C(C)(C)[C@@H]5CC[C@]43C)[C@@H]12 [Example 7, (S)-4-((1R,3aS,5aR,5bR,7aR,11aS,11bR,13aR,13bR)-3a-((2-(1,1-dioxidotetrahydro-2H-thiopyran-4-yl)ethyl)amino)-5a,5b,8,8,11a-pentamethyl-1-(prop-1-en-2-yl)-2,3,3a,4,5,5a,5b,6,7,7a,8,11,11a,11b,12,13,13a,13b-octadecahydro-1H-cyclopenta[a]chrysen-9-yl)-1-(fluoromethyl)cyclohex-3-enecarboxylic acid] | < 0.05 | > 0.05 | –
C=C(C)[C@@H]1CC[C@]2(NCCC3(O)CCC3)CC[C@]3(C)[C@H](CC[C@@H]4[C@@]5(C)CC=C(C6=CC[C@](CF)(C(=O)O)CC6)C(C)(C)[C@@H]5CC[C@]43C)[C@@H]12 [Example 2-9, (S)-1-(fluoromethyl)-4-((1R,3aS,5aR,5bR,7aR,11aS,11bR,13aR,13bR)-3a-((2-(1-hydroxycyclobutyl)ethyl)amino)-5a,5b,8,8,11a-pentamethyl-1-(prop-1-en-2-yl)-2,3,3a,4,5,5a,5b,6,7,7a,8,11,11a,11b,12,13,13a,13b-octadecahydro-1H-cyclopenta[a]chrysen-9-yl)cyclohex-3-enecarboxylic acid] | < 0.05 | > 0.05 | –
C=C(C)[C@@H]1CC[C@]2(NCC(=O)N3CCN(S(C)(=O)=O)CC3)CC[C@]3(C)[C@H](CC[C@@H]4[C@@]5(C)CC=C(C6=CC[C@](CF)(C(=O)O)CC6)C(C)(C)[C@@H]5CC[C@]43C)[C@@H]12 [Example 33, (S)-1-(fluoromethyl)-4-((1R,3aS,5aR,5bR,7aR,11aS,11bR,13aR,13bR)-5a,5b,8,8,11a-pentamethyl-3a-((2-(4-(methylsulfonyl)piperazin-1-yl)-2-oxoethyl)amino)-1-(prop-1-en-2-yl)-2,3,3a,4,5,5a,5b,6,7,7a,8,11,11a,11b,12,13,13a,13b-octadecahydro-1H-cyclopenta[a]chrysen-9-yl)cyclohex-3-enecarboxylic acid] | < 0.05 | > 0.05 | –
C=C(C)[C@@H]1CC[C@]2(CN(CCCN3CCS(=O)(=O)CC3)C(C)=O)CC[C@]3(C)[C@H](CC[C@@H]4[C@@]5(C)CC=C(C6=CC[C@@](CF)(C(=O)O)CC6)C(C)(C)[C@@H]5CC[C@]43C)[C@@H]12 [Example 12, (R)-4-((1R,3aS,5aR,5bR,7aR,11aS,11bR,13aR,13bR)-3a-((N-(3-(1,1-dioxidothiomorpholino)propyl)acetamido)methyl)-5a,5b,8,8,11a-pentamethyl-1-(prop-1-en-2-yl)-2,3,3a,4,5,5a,5b,6,7,7a,8,11,11a,11b,12,13,13a,13b-octadecahydro-1H-cyclopenta[a]chrysen-9-yl)-1-(fluoromethyl)cyclohex-3-enecarboxylic acid] | < 0.05 | > 0.05 | –
C=C(C)[C@@H]1CC[C@]2(NCC(=O)N3CCS(=O)(=O)CC3)CC[C@]3(C)[C@H](CC[C@@H]4[C@@]5(C)CC=C(C6=CC[C@](CF)(C(=O)O)CC6)C(C)(C)[C@@H]5CC[C@]43C)[C@@H]12 [Example 29, (S)-4-((1R,3aS,5aR,5bR,7aR,11aS,11bR,13aR,13bR)-3a-((2-(1,1-dioxidothiomorpholino)-2-oxoethyl)amino)-5a,5b,8,8,11a-pentamethyl-1-(prop-1-en-2-yl)-2,3,3a,4,5,5a,5b,6,7,7a,8,11,11a,11b,12,13,13a,13b-octadecahydro-1H-cyclopenta[a]chrysen-9-yl)-1-(fluoromethyl)cyclohex-3-enecarboxylic acid] | < 0.05 | > 0.05 | –
